Results on one compound are retold here after BindingDB's records for doi:10.1016/j.bmc.2005.05.065 (National Taiwan University, 2005).

This assay concerns the target Replicase polyprotein 1ab (Severe acute respiratory syndrome coronavirus, UniProt P0C6X7). As to the kind of experiment: SARS-CoV 3CL Protease Inhibition Assay. The note with it: pH 7; 25 °C. As for the experimental part:
The effects of compound on enzyme activity were measured by using a fluorogenic peptide cleavage assay. Enhanced fluorescence caused by cleavage of the substrate peptide was monitored at 538 nm with excitation at 355 nm. The Ki measurements were performed at two fixed inhibitor concentrations and various substrate concentrations.

For orientation: IC50 means the midpoint of a concentration-inhibition curve. A lower IC50 goes with higher potency.

Consider `CCOC(=O)/C=C/[C@H](C[C@@H]1CCNC1=O)NC(=O)[C@@H](CC(=O)[C@@H](NC(=O)c1cc(C)on1)C(C)C)Cc1ccc(F)cc1` [ethyl (2E,4S)-4-[((2R,5S)-2-(4-fluorobenzyl)-6-methyl-5-{[(5-methylisoxazol-3-yl)carbonyl]amino}-4-oxoheptanoyl)amino]-5-[(3S)-2-oxopyrrolidin-3-yl]pent-2-enoate], for which the IC50 is > 100 µM.
